Experiments:
P12-Ichikawa [1] = assay: cell viability relative to DMSO control; higher = less cytotoxic; settings: HPLM + 10% dialyzed FBS, 48 h
Method in brief: (§1)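 Viability values are per-plate percentages of DMSO wells, with background from cell-free wells. Library compounds in DMSO were pin-dosed, in an 11-point threefold series from 47 μM to 0.79 nM, onto NOMO1 or SEM (500 cells/well) or P12-Ichikawa (1000 cells/well) leukemia cells in 1536-well plates (5 μl). Those cells had been adapted for at least four passages in each medium, and CellTiter-Glo One luminescence was read after 48 h at 37°C.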

SEM cells [2] = assay: as above; settings: 48 h
Method in brief: as §1

NOMO1 [3] = assay: AUC of viability dose-response curve (% viability x log10 dose units); higher = less sensitive; settings: 48 h
Method in brief: (§2)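 Library compounds in DMSO were applied for 48 h at 37°C at 11 threefold doses (47 μM to 0.79 nM) to medium-adapted leukemia cells in 1536-well plates holding 500 or 1000 cells/well. Luminescence from CellTiter-Glo One was normalised plate by plate against DMSO and cell-free wells. Area under the curve came from trapezoidal integration of a log-logistic fit, after scaling curves that rose above full viability and discarding those that failed quality control. The fit had four parameters and used log10 doses.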

P12-Ichikawa [4] = assay: as above; settings: 48 h
Method in brief: as §2

SEM cells [5] = assay: as above; settings: 48 h
Method in brief: as §2

NOMO1 [6] = assay: cell viability relative to DMSO control; higher = less cytotoxic; settings: 48 h
Method in brief: as §1

CC/1=C(\CCN2CCC(CC2)C3=NOC4=C3C=CC(=C4)F)C(=O)N/5CCCCC5=N1
Settings | AUC of viability dose-response curve | cell viability [%]
NOMO1 [3], HPLM + 10% dialyzed FBS | 457 | –
NOMO1 [3], RPMI 5 mM glucose + 10% FBS | 477 | –
NOMO1 [3], RPMI 5 mM glucose + 10% dialyzed FBS | 472 | –
P12-Ichikawa [1], 0.000781 µM | – | 125
P12-Ichikawa [1], 0.00234 µM | – | 120
P12-Ichikawa [1], 0.00702 µM | – | 122
P12-Ichikawa [1], 0.0211 µM | – | 118
P12-Ichikawa [1], 0.0632 µM | – | 130
P12-Ichikawa [1], 0.19 µM | – | 124
P12-Ichikawa [1], 0.569 µM | – | 127
P12-Ichikawa [1], 1.71 µM | – | 116
P12-Ichikawa [1], 5.12 µM | – | 126
P12-Ichikawa [1], 15.4 µM | – | 133
P12-Ichikawa [1], 46.1 µM | – | 127
P12-Ichikawa [4], HPLM + 10% dialyzed FBS | 463 | –
P12-Ichikawa [4], RPMI 5 mM glucose + 10% FBS | 457 | –
P12-Ichikawa [4], RPMI 5 mM glucose + 10% dialyzed FBS | 476 | –
SEM cells [5], HPLM + 10% dialyzed FBS | 475 | –
SEM cells [5], RPMI 5 mM glucose + 10% FBS | 473 | –
SEM cells [5], RPMI 5 mM glucose + 10% dialyzed FBS | 468 | –

SEM cells [2], HPLM + 10% dialyzed FBS
Settings | cell viability [%]
0.000781 µM | 102
0.00234 µM | 91.1
0.00702 µM | 106
0.0211 µM | 103
0.0632 µM | 122
0.19 µM | 124
0.569 µM | 72.9
1.71 µM | 45.9
5.12 µM | 112
15.4 µM | 115
46.1 µM | 110

NCCc1c[nH]cn1
AUC of viability dose-response curve
Settings | NOMO1 [3] | P12-Ichikawa [4] | SEM cells [5]
HPLM + 10% dialyzed FBS | 466 | 456 | 473
RPMI 5 mM glucose + 10% FBS | 460 | 449 | 437
RPMI 5 mM glucose + 10% dialyzed FBS | 444 | 461 | 432

CCCCC[C@H](O)/C=C/[C@H]1[C@H](O)CC(=O)[C@@H]1CCCCCCC(=O)O
AUC of viability dose-response curve
Settings | NOMO1 [3] | P12-Ichikawa [4] | SEM cells [5]
HPLM + 10% dialyzed FBS | 412 | 464 | 402
RPMI 5 mM glucose + 10% FBS | 455 | 445 | 399
RPMI 5 mM glucose + 10% dialyzed FBS | 417 | 453 | 409

Cc1cccc2c1CC[C@H](CN1CCC(c3c(Cl)cccc3Cl)CC1)C[C@@H]2O
cell viability [%]
Settings | HPLM + 10% dialyzed FBS | RPMI 5 mM glucose + 10% FBS | RPMI 5 mM glucose + 10% dialyzed FBS
NOMO1 [6], 0.000781 µM | 99.8 | – | 103
NOMO1 [6], 0.00234 µM | 115 | – | 124
NOMO1 [6], 0.00702 µM | 116 | – | 130
NOMO1 [6], 0.0211 µM | 126 | – | 148
NOMO1 [6], 0.0632 µM | 133 | – | 129
NOMO1 [6], 0.19 µM | 154 | – | 145
NOMO1 [6], 0.569 µM | 150 | – | 143
NOMO1 [6], 1.71 µM | 136 | – | 103
NOMO1 [6], 5.12 µM | 116 | – | 82
NOMO1 [6], 15.4 µM | 97.9 | – | 70.2
NOMO1 [6], 46.1 µM | 83.9 | – | 61.5
SEM cells [2], 0.000781 µM | 71 | 112 | 88.5
SEM cells [2], 0.00234 µM | 98.2 | 138 | 109
SEM cells [2], 0.00702 µM | 113 | 120 | 118
SEM cells [2], 0.0211 µM | 111 | 127 | 126
SEM cells [2], 0.0632 µM | 128 | 130 | 120
SEM cells [2], 0.19 µM | 114 | 111 | 95.8
SEM cells [2], 0.569 µM | 116 | 142 | 104
SEM cells [2], 1.71 µM | 122 | 133 | 112
SEM cells [2], 5.12 µM | 101 | 108 | 91.9
SEM cells [2], 15.4 µM | 96.6 | 72.5 | 70.6
SEM cells [2], 46.1 µM | 79.9 | 58 | 58.3

AUC of viability dose-response curve
Settings | NOMO1 [3] | P12-Ichikawa [4] | SEM cells [5]
HPLM + 10% dialyzed FBS | 453 | 472 | 474
RPMI 5 mM glucose + 10% FBS | 424 | 425 | 437
RPMI 5 mM glucose + 10% dialyzed FBS | 413 | 439 | 441

Nc1ccn([C@H]2CS[C@@H](CO)O2)c(=O)n1
cell viability [%]
Settings | HPLM + 10% dialyzed FBS | RPMI 5 mM glucose + 10% FBS | RPMI 5 mM glucose + 10% dialyzed FBS
NOMO1 [6], 0.000781 µM | – | 112 | –
NOMO1 [6], 0.00234 µM | – | 122 | –
NOMO1 [6], 0.00702 µM | – | 144 | –
NOMO1 [6], 0.0211 µM | – | 133 | –
NOMO1 [6], 0.0632 µM | – | 135 | –
NOMO1 [6], 0.19 µM | – | 138 | –
NOMO1 [6], 0.569 µM | – | 139 | –
NOMO1 [6], 1.71 µM | – | 148 | –
NOMO1 [6], 5.12 µM | – | 133 | –
NOMO1 [6], 15.4 µM | – | 140 | –
NOMO1 [6], 46.1 µM | – | 145 | –
SEM cells [2], 0.000781 µM | 81.2 | 101 | 104
SEM cells [2], 0.00234 µM | 108 | 116 | 136
SEM cells [2], 0.00702 µM | 109 | 108 | 117
SEM cells [2], 0.0211 µM | 122 | 135 | 134
SEM cells [2], 0.0632 µM | 137 | 157 | 144
SEM cells [2], 0.19 µM | 126 | 138 | 138
SEM cells [2], 0.569 µM | 123 | 141 | 139
SEM cells [2], 1.71 µM | 129 | 130 | 135
SEM cells [2], 5.12 µM | 123 | 144 | 138
SEM cells [2], 15.4 µM | 101 | 153 | 110
SEM cells [2], 46.1 µM | 147 | 144 | 135

AUC of viability dose-response curve
Settings | NOMO1 [3] | P12-Ichikawa [4] | SEM cells [5]
HPLM + 10% dialyzed FBS | 459 | 440 | 454
RPMI 5 mM glucose + 10% FBS | 464 | 471 | 445
RPMI 5 mM glucose + 10% dialyzed FBS | 472 | 464 | 470
